Test results reported in patent US5506359A, “Cocaine analogues and their use as cocaine drug therapies and therapeutic and imaging agents for neurodegenerative disorders” (priority 1993, dated 1996).

Columns and labels:
[1] = system: squirrel monkeys (i.v. drug self-administration); assay: Drug self-administration under second order schedule; format: in vivo, squirrel monkeys (Saimiri sciureus)
From the text: To determine whether CFT also mimicked cocaine's behavioral effects in vivo (specifically the reinforcing and interoceptive effects), squirrel monkeys were trained to respond under a second order schedule of i.v. drug self-administration (see detailed description below). […] The results were consistent with the view that the reinforcing effects of cocaine are mediated by cocaine recognition sites associated with the dopamine uptake system.
For drug discrimination and self administration studies, experiments are conducted with rodents or squirrel monkeys (Saimiri sciureus) seated in standard primate chairs enclosed in ventilated, sound-attenuating chambers. The chairs are equipped with response levers, stimulus lights, food pellet dispensers, and pumps for injecting drugs intravenously. […] Response rates and temporal patterns of responding are monitored continuously during daily experimental sessions. Effects of drugs are analyzed in individual subjects by comparing performances during drug sessions with those during control sessions. […]
Initially, responding is maintained using an injection dose of 100 μg/kg cocaine, which usually is optimal for developing i.v. self-administration.After consistent rates and patterns of responding are maintained by cocaine, the effects of a full range of doses of cocaine and of selected candidate drugs is determined. […]

[2] = system: squirrel monkeys trained to discriminate cocaine; assay: Drug discrimination (cocaine versus saline); format: in vivo, squirrel monkeys (Saimiri sciureus); conditions: training dose cocaine 0.3-0.56 mg/kg
Procedure: The subjective (interoceptive) effects of cocaine were studied in monkeys through the use of a drug discrimination procedure. […] Squirrel monkeys were trained to discriminate cocaine (0.3-0.56 mg/kg) from saline using a two-level choice procedure.
For drug discrimination and self administration studies, experiments are conducted with rodents or squirrel monkeys (Saimiri sciureus) seated in standard primate chairs enclosed in ventilated, sound-attenuating chambers. The chairs are equipped with response levers, stimulus lights, food pellet dispensers, and pumps for injecting drugs intravenously. Four animals are studied in each experiment, with each subject receiving all drug treatments whenever possible. Response rates and temporal patterns of responding are monitored continuously during daily experimental sessions. Effects of drugs are analyzed in individual subjects by comparing performances during drug sessions with those during control sessions. […]
Drug discrimination experiments are conducted using cumulative-dose procedures similar to those described in Madras et al. (Soc. Neurosci. Abst. 16:14, 1990; Pharmacol. Biochem. Behav. 35:949-953, 1990) and Spealman et al. (J. Pharmacol. Exp. Ther. 258:945-953, 1991). […] Good agreement has been found between the effects of drugs determined by cumulative-dose procedures and by single-dose procedures when appropriate parameters are selected. […]

[3] = target: dopamine transporter, human caudate nucleus and putamen (Homo sapiens, UniProt Q01959); assay: [^3 H]CFT binding to homogenates of human caudate nucleus and putamen; conditions: human caudate nucleus and putamen homogenates
Sequence of dopamine transporter, human caudate nucleus and putamen (Q01959 whole entry): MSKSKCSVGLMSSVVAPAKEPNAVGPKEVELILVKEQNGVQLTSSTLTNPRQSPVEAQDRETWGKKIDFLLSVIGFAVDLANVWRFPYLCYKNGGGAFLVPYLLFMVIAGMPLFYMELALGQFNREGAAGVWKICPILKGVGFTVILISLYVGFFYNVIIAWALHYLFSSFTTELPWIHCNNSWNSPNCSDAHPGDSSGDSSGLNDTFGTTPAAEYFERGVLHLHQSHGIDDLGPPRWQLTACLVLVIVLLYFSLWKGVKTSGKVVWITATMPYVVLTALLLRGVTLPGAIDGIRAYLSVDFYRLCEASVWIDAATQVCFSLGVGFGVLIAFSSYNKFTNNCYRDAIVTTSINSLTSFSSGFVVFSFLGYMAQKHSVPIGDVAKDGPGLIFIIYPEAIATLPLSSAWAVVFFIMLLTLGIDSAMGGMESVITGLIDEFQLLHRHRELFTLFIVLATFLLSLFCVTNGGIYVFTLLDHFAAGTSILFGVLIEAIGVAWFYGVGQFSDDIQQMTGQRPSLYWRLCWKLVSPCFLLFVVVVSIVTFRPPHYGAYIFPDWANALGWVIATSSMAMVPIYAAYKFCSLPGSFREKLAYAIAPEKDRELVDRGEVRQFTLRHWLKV
From the text: In order to determine whether [^3 H]CFT labels sites associated with the dopamine transporter, the binding of [^3 H]CFT to homogenates of human caudate nucleus and putamen, was characterized.

[4] = system: [^3 H]CFT binding sites in monkey caudate-putamen; conditions: cited from earlier work

## COC(=O)[C@H]1[C@@H](c2ccc(F)cc2)C[C@@H]2CC[C@H]1N2C [4'a (CFT), 2β-carbomethoxy-3β-(4-fluorophenyl)tropane]
[1]
  potency in maintaining responding relative to cocaine: approximately six
[2]
  generalization to cocaine cue: fully generalized to the cocaine cue
[3]
  rank order of potency for inhibiting [^3 H]CFT binding: Lu 19-005>CFT, mazindol, GBR 12909>(-)-cocaine>bupropion>(+)-cocaine
[4]
  extent of displacement of [^3 H]CFT: full displacement of [^3 H]CFT
[4]; competition curves
  number of binding components: at least two binding components
[4]; displacement of [^3 H]CFT
  steepness of competition curve: 0.61-0.89
